Measurements from US20170296668A1, “METHODS OF INCREASING SOLUBILITY OF POORLY SOLUBLE COMPOUNDS AND METHODS OF MAKING AND USING FORMULATIONS OF SUCH COMPOUND” (VIZURI HEALTH SCIENCES LLC, priority 2009, published 2017).
Where two headings read alike, the source gives them in different places.

Key:
[1] = Boiling of flavonoid in H2O & PS80 slurry; type: physicochemical; settings: 2. H2O & PS80 slurry boiled; for solubility: water and polysorbate 80 slurry, aqueous with cosolvent or surfactant or cyclodextrin, thermodynamic from solid, read-out: SOLUBLE CONC. RANGE
[2] = Solubility in PEG 400 / PEG 300 via thermal treatment process; settings: for Flavonoid in Solvent -: PEG-400, HPLC, thermal treatment concentrate; for Jordi PEG400 Results / PEG400 Sol. Conc.: Table III
Method: • The objective of this work was to quantify a total of six different flavonoids in PS80 and PEG-400. The samples were also analyzed qualitatively to look for signs of degradation of the solvents due to the elevated temperatures required of the thermal treatment process. • This project was divided into three distinct phases: method validation/development, quantitation of the individual flavones, and qualitative analysis to look for signs of PS80/PEG400 degradation.

[3] = Solubility in Polysorbate 80 via thermal treatment process; settings: for Prepared Thermal Treatment Concentration in Polysorbate 80: Table XV; for solubility: polysorbate 80, organic solvent or mixture, thermodynamic from solid; for PS80 Sol. Conc. - / Jordi PS800 Results: Table III; for Flavonoid in Solvent -: PS80, HPLC, thermal treatment concentrate
Method: The concentration of apigenin in A/PS80 was measured by HPLC-MS.

[4] = cited from earlier work; for Lit. H2O Sol. -: Table III; for WATER SOLUBILITY (mg/ml): saturation concentrations, published sources
[5] = Aqueous solution clarity: water added to concentrate vs non-concentrate method
Method: (§1) The concentrates were added to water and their aqueous solution characteristics noted.

[6] = Solubility of concentrates in oil solvents; type: physicochemical
From the text: Borage oil was obtained from Sigma-Aldrich (St. Louis, Mo.) and Mineral Oil, USP, Canola Oil and Jojoba Oil from Spectrum Chemical of New Brunswick, N.J.

[7] = Solubility in Ceteareth-20 via thermal treatment process; settings: thermal treatment >200° C.
[8] = Nonoxynol-9 concentrates via thermal treatment process; type: physicochemical; settings: Table XVI
Method: as §1

[9] = Supersaturation test by addition of a crystal
[10] = tested on: EpiDerm tissue; type: cell-based; settings: time to reduce tissue viability to 50%; unaudited values
Method: • The purpose of this study was to compare the acute dermal irritation potential of 5 Apigenin containing formulations using the Epiderm MTT ET50 assay. The time required for a test article to reduce tissue viability to 50%, i.e. ET50, correlates well with the traditional in vivo rabbit skin irritation test • This study was conducted at MB Research Laboratories (Spinnerstown, Pa. to conduct the EpiDerm MTT Assay. EpiDerm tissue was incubated with Api Genesis formulations for 1, 4 and 24 hours (two tissues per time point for each test article). Triton X-100, 1%, was used as positive control. After incubation, the tissues were rinsed to remove test articles and cytotoxicity was determined with MTT dye [3-(4, 5-Dimethylthiazol-2-yl)-2, 5-diphenyltetrazolium bromide, Thiazolyl blue]. Only viable cells are capable of enzymatic reduction of MTT into a purple formazan product that is quantitatively measured following extraction from the tissue.

[11] = PS80, 1. Thermal Treatment method

COc1ccc([C@@H]2CC(=O)c3c(O)cc(O[C@@H]4O[C@H](CO[C@@H]5O[C@@H](C)[C@H](O)[C@@H](O)[C@H]5O)[C@@H](O)[C@H](O)[C@H]4O)cc3O2)cc1O [Hesperidin]
SOLUBLE CONC. RANGE [1]: < 10 mg/mL | SOLUBLE CONC. RANGE (% wt/wt) [1]: < 1% | Molar Ratio PEG400/API (mole/mole) [2]: 21.2 mole/mole | Flavonoid in Solvent - [2]: 81.0 ± 8.0 mg/mL | Jordi PEG400 Results ([2]; thermal treatment): 81 mg/mL | SOLUBLE CONC. RANGE [3, 11]: < 20 mg/mL | Lit. H2O Sol. - [4]: 0.05 to 3 mg/mL | WATER SOLUBILITY (mg/ml) [4]: from 0.05 to 3 mg/ml

O=c1cc(-c2ccc(O)c(O)c2)oc2cc(O)cc(O)c12 [Luteolin, 3′,4′,5,7-tetrahydroxyflavone]
non-concentrate method: compound, nonoxynol-9 and 17 ml water heated to near boiling, cooled [5]: did precipitate | Comments when 17 ml of H2O was added to 3 gms of the concentrate ([5]; Nonoxynol-9 concentrate): A clear soln formed. | non-concentrate method: compound, polysorbate 80 and 17 ml water heated to near boiling, cooled [5]: did precipitate | Comments when 17 ml of H2O was added to 3 gms of the concentrate ([5]; Polysorbate 80 concentrate): A clear soln formed. | solubility in the test oils ([6]; mineral, jojoba, canola, borage oils): insoluble | concentration of concentrate in polyglyceryl-4 oleate ([6]; room temperature): 10000 µg/mL | SOLUBLE CONC. RANGE (% wt/wt) [1]: ≤ 5% | solubility [1]: ≤ 50 mg/mL | Molar Ratio PEG400/API (mole/mole) [2]: 11.1 mole/mole | Flavonoid in Solvent - [2]: 72.5 mg/mL | Jordi PEG400 Results ([2]; thermal treatment): 72.5 mg/mL | PEG400 Sol. Conc. ([2]; thermal treatment): 70 to 90 mg/mL | Conc. In Ceteareth-20 [7]: ~10000 µg/mL | SOLUBLE CONC. RANGE (% wt/wt) [3, 11]: > 8% | Prepared Thermal Treatment Concentration in Polysorbate 80 [3]: 50 mg/mL | solubility [3]: > 80 mg/mL | PS80 Sol. Conc. - ([3]; thermal treatment): >80 mg/mL | Lit. H2O Sol. - [4]: 0.38 mg/mL | Literature Solubility in H2O @ 25° C. ([4]; Table XV): 0.14 mg/mL | Literature Solubility in H2O @ 25° C. ([4]; Table XVI): 0.14 mg/mL | Prepared Thermal Treatment Concentration in Nonoxynol-9 [8]: 50 mg/mL

Cc1cccc(Nc2ccccc2C(=O)O)c1C [Mefenamic Acid, reference compound]
non-concentrate method: compound, nonoxynol-9 and 17 ml water heated to near boiling, cooled [5]: did precipitate | Comments when 17 ml of H2O was added to 3 gms of the concentrate ([5]; Nonoxynol-9 concentrate): A clear soln formed. | PEG400 Solubility: behaviour when H2O was added ([5]; PEG400 solution + H2O): Nost Mefenamic Acid ppt. out when H2O was added | PS80 Solubility: behaviour when H2O was added ([5]; PS80 solution + H2O): Nost Mefenamic Acid dissolved when H2O was added | non-concentrate method: compound, polysorbate 80 and 17 ml water heated to near boiling, cooled [5]: did precipitate | Comments when 17 ml of H2O was added to 3 gms of the concentrate ([5]; Polysorbate 80 concentrate): A clear soln formed. | PEG400 Solubility: amount solubilized, remained solubilized @ Room Temp. ([2]; thermal treatment): 1 wt % | Prepared Thermal Treatment Concentration in Polysorbate 80 [3]: 10 mg/mL | PS80 Solubility: amount solubilized, remained solubilized @ Room Temp. ([3]; thermal treatment): 1 wt % | Literature Solubility in H2O @ 25° C. ([4]; Table XV): 0.004 mg/mL | Literature Solubility in H2O @ 25° C. ([4]; Table XVI): 0.004 mg/mL | PEG400 Solubility: supersaturation ([9]; PEG400 solution): Not Sup. Sat. | PS80 Solubility: supersaturation ([9]; PS80 solution): Not Sup. Sat. | Prepared Thermal Treatment Concentration in Nonoxynol-9 [8]: 10 mg/mL

O=c1c(O)c(-c2ccc(O)c(O)c2)oc2cc(O)cc(O)c12 [Quercetin]
SOLUBLE CONC. RANGE (% wt/wt) [1]: <<7% | PEG400 Sol. Conc. ([2]; thermal treatment): 60 to 80 mg/mL | Conc. In Ceteareth-20 [7]: ~10000 µg/mL | SOLUBLE CONC. RANGE (% wt/wt) [3, 11]: > 7% | Flavonoid in Solvent - [3]: 65.0 mg/mL | solubility [3]: > 70 mg/mL | Jordi PS800 Results ([3]; thermal treatment): 65 mg/mL | PS80 Sol. Conc. - ([3]; thermal treatment): >80 mg/mL | Lit. H2O Sol. - [4]: <1 mg/mL | WATER SOLUBILITY (mg/ml) [4]: *<1 mg/ml | supersaturation in Ceteareth-20 ([9]; Room Temp.): solubilization. Not Super Saturated at Room Temp. via

Oc1ccc(C=Cc2cc(O)cc(O)c2)cc1 [Resveratrol]
PEG400 Sol. Conc. ([2]; thermal treatment): 80 to 100 mg/mL | SOLUBLE CONC. RANGE (% wt/wt) [3, 11]: > 8% | Flavonoid in Solvent - [3]: 127.5 mg/mL | solubility [3]: > 80 mg/mL | Jordi PS800 Results ([3]; thermal treatment): 127.5 mg/mL | PS80 Sol. Conc. - ([3]; thermal treatment): >80 mg/mL | WATER SOLUBILITY (mg/ml) [4]: *0.1 to 0.3 mg/ml

C[C@@H]1O[C@@H](OC[C@H]2O[C@@H](Oc3c(-c4ccc(O)c(O)c4)oc4cc(O)cc(O)c4c3=O)[C@H](O)[C@@H](O)[C@@H]2O)[C@H](O)[C@H](O)[C@H]1O [Rutin]
solubility [1]: < 15 mg/mL | SOLUBLE CONC. RANGE (% wt/wt) [3, 11]: < 1% | Flavonoid in Solvent - [3]: 14.3 mg/mL | solubility [3]: < 10 mg/mL

Triton X-100
ET50 [10]: 5.9 h
